Measured values as given in US8618289B2 (Ambit Biosciences Corporation, priority 2008, dated 2013).
pEC50, pIC50, pKd: −log10 of the molar value.

Assays:
[1] = test system: MEK1 phosphorylation in the A375 human melanoma cell line; test: cells; settings: A-375, read-out: pMEK IC50
A375 cells = test: cells; settings: Homo sapiens, A-375, read-out: A375 Viability EC50
RAF kinases [2] = target: RAF kinases (Homo sapiens, UniProt P04049); test: biochemical
RAF kinases [3] = target: RAF kinases (Homo sapiens, UniProt P15056, V600E); test: biochemical
Sequence of RAF kinases (Homo sapiens, UniProt P15056, V600E) (P15056 whole entry V600E): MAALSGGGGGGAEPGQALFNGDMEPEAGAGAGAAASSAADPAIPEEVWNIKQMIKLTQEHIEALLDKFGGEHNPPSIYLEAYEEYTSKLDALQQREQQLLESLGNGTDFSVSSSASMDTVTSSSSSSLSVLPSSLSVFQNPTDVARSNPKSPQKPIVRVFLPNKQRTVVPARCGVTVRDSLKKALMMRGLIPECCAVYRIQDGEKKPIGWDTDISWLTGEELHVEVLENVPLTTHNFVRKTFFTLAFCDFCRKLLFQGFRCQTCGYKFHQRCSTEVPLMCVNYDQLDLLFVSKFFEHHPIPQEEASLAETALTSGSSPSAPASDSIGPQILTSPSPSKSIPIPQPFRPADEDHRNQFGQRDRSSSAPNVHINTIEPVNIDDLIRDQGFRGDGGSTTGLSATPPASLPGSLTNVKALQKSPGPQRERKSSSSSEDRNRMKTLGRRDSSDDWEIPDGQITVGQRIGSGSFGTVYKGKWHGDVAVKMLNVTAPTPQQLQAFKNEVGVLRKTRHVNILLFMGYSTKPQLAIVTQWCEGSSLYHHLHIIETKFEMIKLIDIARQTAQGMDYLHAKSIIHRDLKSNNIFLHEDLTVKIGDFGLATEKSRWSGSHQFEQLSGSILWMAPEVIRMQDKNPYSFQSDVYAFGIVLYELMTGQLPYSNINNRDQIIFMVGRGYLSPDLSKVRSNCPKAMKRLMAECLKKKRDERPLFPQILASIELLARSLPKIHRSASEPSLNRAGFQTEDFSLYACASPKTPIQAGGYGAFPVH

RAF kinases [4] = target: RAF kinases (Homo sapiens, UniProt P15056); test: biochemical
Sequence of RAF kinases (Homo sapiens, UniProt P15056) (P15056 whole entry): as the sequence (P15056 whole entry V600E) above, with E600V counted along it

Sequence of RAF kinases (Homo sapiens, UniProt P04049) (P04049 whole entry): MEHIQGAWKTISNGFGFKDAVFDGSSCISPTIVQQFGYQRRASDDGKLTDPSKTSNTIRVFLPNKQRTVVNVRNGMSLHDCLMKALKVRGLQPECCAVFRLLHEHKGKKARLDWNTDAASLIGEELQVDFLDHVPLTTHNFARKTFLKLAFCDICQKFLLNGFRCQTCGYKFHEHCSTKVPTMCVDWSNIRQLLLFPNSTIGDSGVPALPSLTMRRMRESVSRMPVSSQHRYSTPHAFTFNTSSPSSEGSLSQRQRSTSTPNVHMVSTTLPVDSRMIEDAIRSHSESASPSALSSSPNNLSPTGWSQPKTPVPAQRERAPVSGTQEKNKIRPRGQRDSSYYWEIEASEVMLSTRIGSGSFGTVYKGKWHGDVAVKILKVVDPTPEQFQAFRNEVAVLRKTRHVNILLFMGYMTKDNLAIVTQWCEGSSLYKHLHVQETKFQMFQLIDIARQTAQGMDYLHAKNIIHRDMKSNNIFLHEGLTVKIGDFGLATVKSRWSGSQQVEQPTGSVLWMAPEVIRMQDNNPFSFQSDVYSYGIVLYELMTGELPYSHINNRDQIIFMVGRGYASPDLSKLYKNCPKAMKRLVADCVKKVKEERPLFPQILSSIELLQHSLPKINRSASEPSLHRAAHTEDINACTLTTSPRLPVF

Structure (SMILES)	pIC50 [1]	pEC50 (A375 cells)	pKd (RAF kinases [2])	pKd (RAF kinases [3])	pKd (RAF kinases [4])
COc1ccc2ncnc(Sc3cccc(NC(=O)Nc4cc(C(C)(C)C)on4)c3)c2c1 [Ex 49, 1-(5-tert-butylisoxazol-3-yl)-3-(3-(6-methoxyquinazolin-4-ylthio)phenyl)urea]	6.00 to 6.30	< 6.00	6.00 to 6.30	6.30 to 6.60	–
COc1cc2c(Sc3cccc(NC(=O)Nc4cc(C(C)(C)C)on4)c3)ncnc2cc1OCCN1CCC(CO)CC1 [Ex 86, 1-(5-tert-butylisoxazol-3-yl)-3-(3-(7-(2-(4-(hydroxymethyl)piperidin-1-yl)ethoxy)-6-methoxyquinazolin-4-ylthio)phenyl)urea]	> 6.60	< 6.00	6.00 to 6.30	6.30 to 6.60	–
COCCOc1ccc2ncnc(Sc3cccc(NC(=O)Nc4cc(C(C)(C)C)on4)c3)c2c1 [Ex 87, 1-(5-tert-butylisoxazol-3-yl)-3-(3-(6-(2-methoxyethoxy)quinazolin-4-ylthio)phenyl)urea]	6.30 to 6.60	< 6.00	6.00 to 6.30	6.30 to 6.60	–
COc1cc(OC2CCOCC2)c2c(Oc3cccc(NC(=O)Nc4cc(C(C)(C)C)on4)c3)ncnc2c1 [Ex 94, 1-(5-tert-butylisoxazol-3-yl)-3-{3-[7-methoxy-5-(tetrahydro-2H-pyran-4-yloxy)quinazolin-4-yloxy]phenyl}urea]	6.30 to 6.60	< 6.00	6.30 to 6.60	6.30 to 6.60	–
COc1cc2ncnc(Oc3cccc(NC(=O)Nc4cc(-c5ccccc5)on4)c3)c2cc1OC [Ex 113, 1-(3-(6,7-dimethoxyquinazolin-4-yloxy)phenyl)-3-(5-phenylisoxazol-3-yl)urea]	6.00 to 6.30	< 6.00	–	6.30 to 6.60	6.00 to 6.30
COc1cc2ncnc(Oc3cccc(NC(=O)Nc4cc(C5CCOCC5)no4)c3)c2cc1OC [Ex 123, 1-(3-(6,7-dimethoxyquinazolin-4-yloxy)phenyl)-3-(3-(tetrahydro-2H-pyran-4-yl)isoxazol-5-yl)urea]	< 6.00	< 6.00	6.00 to 6.30	6.30 to 6.60	–
COCCOc1cc(NC(=O)Nc2cccc(Oc3ncnc4cc(OC)c(OC)cc34)c2)cc(C(F)(F)F)c1 [Ex 129, 1-(3-(6,7-dimethoxyquinazolin-4-yloxy)phenyl)-3-(3-(2-methoxyethoxy)-5-(trifluoromethyl)phenyl)urea]	< 6.00	< 6.00	6.30 to 6.60	6.30 to 6.60	–
COc1cc2ncnc(Oc3cccc(NC(=O)Nc4cc(Cl)cc(C(F)(F)F)c4)c3)c2cc1OC [Ex 140, 1-(3-chloro-5-(trifluoromethyl)phenyl)-3-(3-(6,7-dimethoxyquinazolin-4-yloxy)phenyl)urea]	< 6.00	< 6.00	6.00 to 6.30	6.00 to 6.30	–
COc1cc2ncnc(Oc3cccc(NC(=O)Nc4cc(C(F)(F)F)ccc4Cl)c3)c2cc1OC [Ex 142, 1-(2-chloro-5-(trifluoromethyl)phenyl)-3-(3-(6,7-dimethoxyquinazolin-4-yloxy)phenyl)urea]	< 6.00	< 6.00	6.30 to 6.60	6.30 to 6.60	–
COc1cc2ncnc(Oc3cccc(NC(=O)Nc4nccc(C(F)(F)F)n4)c3)c2cc1OC [Ex 143, 1-(3-(6,7-dimethoxyquinazolin-4-yloxy)phenyl)-3-(4-(trifluoromethyl)pyrimidin-2-yl)urea]	< 6.00	< 6.00	6.30 to 6.60	6.30 to 6.60	–
COCCOc1cc(NC(=O)Nc2cccc(Oc3ncnc4cc(OC)c(OC)cc34)c2)ccc1C(F)(F)F [Ex 147, 1-(3-(6,7-dimethoxyquinazolin-4-yloxy)phenyl)-3-(3-(2-methoxyethoxy)-4-(trifluoromethyl)phenyl)urea]	< 6.00	< 6.00	6.00 to 6.30	6.30 to 6.60	–
COc1cc2ncnc(Oc3cccc(NC(=O)Nc4cc(C(=O)N5CCOCC5)cc(C(F)(F)F)c4)c3)c2cc1OC [Ex 149, 1-(3-(6,7-dimethoxyquinazolin-4-yloxy)phenyl)-3-(3-(morpholine-4-carbonyl)-5-(trifluoromethyl)phenyl)urea]	< 6.00	< 6.00	–	6.00 to 6.30	–
COc1cc2ncnc(Oc3cccc(NC(=O)Nc4cc(C5(C(F)(F)F)CCC5)no4)c3)c2cc1OC [Ex 155, 1-(3-(6,7-dimethoxyquinazolin-4-yloxy)phenyl)-3-(3-(1-(trifluoromethyl)cyclobutyl)isoxazol-5-yl)urea]	6.30 to 6.60	< 6.00	–	6.30 to 6.60	–
COc1cc2ncnc(Sc3cccc(NC(=O)Nc4cc(C5(C(F)(F)F)CCC5)no4)c3)c2cc1OC [Ex 156, 1-(3-(6,7-dimethoxyquinazolin-4-ylthio)phenyl)-3-(3-(1-(trifluoromethyl)cyclobutyl)isoxazol-5-yl)urea]	6.00 to 6.30	< 6.00	–	6.00 to 6.30	–
COc1cc2ncnc(Oc3cccc(NC(=O)Nc4cc(C(F)(F)F)nn4-c4ccccc4)c3)c2cc1OC [Ex 161, 1-[3-(6,7-dimethoxyquinazolin-4-yloxy)phenyl]-3-[1-phenyl-3-(trifluoromethyl)-1H-pyrazol-5-yl]urea]	> 6.60	6.30 to 6.60	–	6.00 to 6.30	–
CCOC(=O)Cn1nc(C(C)(C)C)cc1NC(=O)Nc1cccc(Oc2ncnc3cc(OC)c(OC)cc23)c1 [Ex 166, ethyl 2-(3-tert-butyl-5-{3-[3-(6,7-dimethoxyquinazolin-4-yloxy)phenyl]ureido}-1H-pyrazol-1-yl)acetate]	6.00 to 6.30	< 6.00	–	6.30 to 6.60	–
CCOC(C)(C)c1cc(NC(=O)Nc2cccc(Oc3ncnc4cc(OC)c(OC)cc34)c2)n(-c2ccccc2)n1 [Ex 168, 1-[3-(6,7-dimethoxyquinazolin-4-yloxy)phenyl]-3-[3-(2-ethoxypropan-2-yl)-1-phenyl-1H-pyrazol-5-yl]urea]	> 6.60	< 6.00	–	6.00 to 6.30	–
COc1cc2ncnc(Oc3cccc(NC(=O)Nc4cc(C(F)(F)F)nn4-c4ccc(F)cc4)c3)c2cc1OC [Ex 171, 1-[3-(6,7-dimethoxyquinazolin-4-yloxy)phenyl]-3-[1-(4-fluorophenyl)-3-(trifluoromethyl)-1H-pyrazol-5-yl]urea]	6.30 to 6.60	6.30 to 6.60	–	6.00 to 6.30	–
COc1cc2ncnc(Oc3cccc(NC(=O)Nc4cc(C(F)(F)F)nn4-c4ccc(C)cc4)c3)c2cc1OC [Ex 172, 1-[3-(6,7-dimethoxyquinazolin-4-yloxy)phenyl]-3-[1-p-tolyl-3-(trifluoromethyl)-1H-pyrazol-5-yl]urea]	> 6.60	> 6.60	–	6.00 to 6.30	–
COc1cc2ncnc(Sc3cccc(NC(=O)Nc4ccc(Cl)c(C(F)(F)F)c4)c3)c2cc1OC [Ex 186, 1-(4-chloro-3-(trifluoromethyl)phenyl)-3-(3-(6,7-dimethoxyquinazolin-4-ylthio)phenyl)urea]	6.30 to 6.60	6.00 to 6.30	–	6.30 to 6.60	–
COc1cc2ncnc(Sc3cccc(NC(=O)Nc4ccc(C(F)(F)F)c(OC)c4)c3)c2cc1OC [Ex 190, 1-(3-(6,7-dimethoxyquinazolin-4-ylthio)phenyl)-3-(3-methoxy-4-(trifluoromethyl)phenyl)urea]	< 6.00	< 6.00	–	6.00 to 6.30	–
COc1cc2ncnc(Sc3cccc(NC(=O)Nc4cc(C(F)(F)F)nn4-c4ccccc4)c3)c2cc1OC [Ex 192, 1-[3-(6,7-dimethoxyquinazolin-4-ylthio)phenyl]-3-[1-phenyl-3-(trifluoromethyl)-1H-pyrazol-5-yl]urea]	> 6.60	6.30 to 6.60	–	6.00 to 6.30	–
CCOC(=O)Cn1nc(C(C)(C)C)cc1NC(=O)Nc1cccc(Sc2ncnc3cc(OC)c(OC)cc23)c1 [Ex 195, ethyl 2-(3-tert-butyl-5-{3-[3-(6,7-dimethoxyquinazolin-4-ylthio)phenyl]ureido}-1H-pyrazol-1-yl)acetate]	6.30 to 6.60	< 6.00	–	6.30 to 6.60	–
COc1cc2ncnc(Sc3cccc(NC(=O)Nc4cc(C(F)(F)F)nn4-c4ccc(F)cc4)c3)c2cc1OC [Ex 198, 1-[3-(6,7-dimethoxyquinazolin-4-ylthio)phenyl]-3-[1-(4-fluorophenyl)-3-(trifluoromethyl)-1H-pyrazol-5-yl]urea]	6.30 to 6.60	6.00 to 6.30	–	6.00 to 6.30	–
COCCOc1cc(NC(=O)Nc2cccc(Sc3ncnc4cc(OC)c(OC)cc34)c2)cc(C(F)(F)F)c1 [Ex 200, 1-(3-(6,7-dimethoxyquinazolin-4-ylthio)phenyl)-3-(3-(2-methoxyethoxy)-5-(trifluoromethyl)phenyl)urea]	< 6.00	< 6.00	–	6.00 to 6.30	6.00 to 6.30
COCCOc1cc2ncnc(Oc3cccc(NC(=O)Nc4cc(C(=O)N5CCOCC5)cc(C(F)(F)F)c4)c3)c2cc1OC [Ex 205, 1-(3-(6-methoxy-7-(2-methoxyethoxy)quinazolin-4-yloxy)phenyl)-3-(3-(morpholine-4-carbonyl)-5-(trifluoromethyl)phenyl)urea]	< 6.00	< 6.00	–	6.30 to 6.60	–
CCOC(C)(C)c1cc(NC(=O)Nc2cccc(Oc3ncnc4cc(OCCOC)c(OC)cc34)c2)n(-c2ccccc2)n1 [Ex 212, 1-[3-(2-ethoxypropan-2-yl)-1-phenyl-1H-pyrazol-5-yl]-3-{3-[6-methoxy-7-(2-methoxyethoxy)quinazolin-4-yloxy]phenyl}urea]	6.00 to 6.30	< 6.00	–	6.30 to 6.60	–
CCOC(C)(C)c1cc(NC(=O)Nc2cccc(Sc3ncnc4cc(OCCOC)c(OC)cc34)c2)n(-c2ccccc2)n1 [Ex 241, 1-[3-(2-ethoxypropan-2-yl)-1-phenyl-1H-pyrazol-5-yl]-3-{3-[6-methoxy-7-(2-methoxyethoxy)quinazolin-4-ylthio]phenyl}urea]	6.00 to 6.30	< 6.00	–	6.30 to 6.60	–
